The values that follow come from article PMC9685933, “Tiliroside suppresses triple-negative breast cancer as a multifunctional CAXII inhibitor” (Cancer Cell International, 2022).

The target of this test is T1, CAXII (Homo sapiens, UniProt O43570).
T1 construct: gene CA12
The experiment in a line: CAXII esterase activity assay (4-nitrophenol absorbance) in MDA-MB-231 cells; […] in BT-549 cells. The format is cell-based.

T1 sequence (O43570 25-354): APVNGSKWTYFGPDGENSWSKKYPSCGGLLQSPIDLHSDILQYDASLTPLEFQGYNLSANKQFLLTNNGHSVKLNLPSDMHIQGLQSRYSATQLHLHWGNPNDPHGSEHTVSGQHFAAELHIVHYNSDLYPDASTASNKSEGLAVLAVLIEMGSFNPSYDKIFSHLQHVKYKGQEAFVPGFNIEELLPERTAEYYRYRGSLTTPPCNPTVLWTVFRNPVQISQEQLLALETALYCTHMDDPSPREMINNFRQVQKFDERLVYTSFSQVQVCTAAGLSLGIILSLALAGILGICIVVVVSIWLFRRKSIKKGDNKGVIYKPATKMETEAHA

Consider `O=C(/C=C/c1ccc(O)cc1)OC[C@H]1O[C@@H](Oc2c(-c3ccc(O)cc3)oc3cc(O)cc(O)c3c2=O)[C@H](O)[C@@H](O)[C@@H]1O` [TS, Tiliroside], for which inhibition was half-maximal at 20.9 ± 5.8 µM (IC50).

Broadly, the IC50 is the midpoint of a concentration-inhibition curve. Read a low IC50 as inhibition by little substance.
